Data as given in ChEMBL document CHEMBL1955771, “VX-322: a novel dual receptor tyrosine kinase inhibitor for the treatment of acute myelogenous leukemia” (J Med Chem, 2012).

Legend:
BaF3 = test: Antitumor activity against mouse BA/F3 cells expressing FLT3-ITD mutant xenografted in BALB/c mouse myeloproliferative model assessed as increase in host survival days at 0.25 mg/kg, po qd relative to control (reference value: 20 days); assay type: functional, organism-based; set-up: dose 0.25 mg/kg
MV4-11 [1] = test: Induction of apoptosis in human MV4-11 cells at 100 nM assessed as prenecrotic cells after 24 hrs by annexin V and propidium iodide staining method (reference value: 90.3 %); assay type: functional
cells [2] = details: Homo sapiens, Leukemia cell, 72 h
Description: Cytotoxicity against human primary leukemia cells isolated from acute myeloid leukemia patient expressing wild type FLT3 assessed as cell viability after 72 hrs by luciferase assay

[3] = biological target: T1, Tyrosine-protein kinase JAK3 (Homo sapiens, UniProt P52333); test: Inhibition of Jak3
T1 sequence (P52333 whole entry): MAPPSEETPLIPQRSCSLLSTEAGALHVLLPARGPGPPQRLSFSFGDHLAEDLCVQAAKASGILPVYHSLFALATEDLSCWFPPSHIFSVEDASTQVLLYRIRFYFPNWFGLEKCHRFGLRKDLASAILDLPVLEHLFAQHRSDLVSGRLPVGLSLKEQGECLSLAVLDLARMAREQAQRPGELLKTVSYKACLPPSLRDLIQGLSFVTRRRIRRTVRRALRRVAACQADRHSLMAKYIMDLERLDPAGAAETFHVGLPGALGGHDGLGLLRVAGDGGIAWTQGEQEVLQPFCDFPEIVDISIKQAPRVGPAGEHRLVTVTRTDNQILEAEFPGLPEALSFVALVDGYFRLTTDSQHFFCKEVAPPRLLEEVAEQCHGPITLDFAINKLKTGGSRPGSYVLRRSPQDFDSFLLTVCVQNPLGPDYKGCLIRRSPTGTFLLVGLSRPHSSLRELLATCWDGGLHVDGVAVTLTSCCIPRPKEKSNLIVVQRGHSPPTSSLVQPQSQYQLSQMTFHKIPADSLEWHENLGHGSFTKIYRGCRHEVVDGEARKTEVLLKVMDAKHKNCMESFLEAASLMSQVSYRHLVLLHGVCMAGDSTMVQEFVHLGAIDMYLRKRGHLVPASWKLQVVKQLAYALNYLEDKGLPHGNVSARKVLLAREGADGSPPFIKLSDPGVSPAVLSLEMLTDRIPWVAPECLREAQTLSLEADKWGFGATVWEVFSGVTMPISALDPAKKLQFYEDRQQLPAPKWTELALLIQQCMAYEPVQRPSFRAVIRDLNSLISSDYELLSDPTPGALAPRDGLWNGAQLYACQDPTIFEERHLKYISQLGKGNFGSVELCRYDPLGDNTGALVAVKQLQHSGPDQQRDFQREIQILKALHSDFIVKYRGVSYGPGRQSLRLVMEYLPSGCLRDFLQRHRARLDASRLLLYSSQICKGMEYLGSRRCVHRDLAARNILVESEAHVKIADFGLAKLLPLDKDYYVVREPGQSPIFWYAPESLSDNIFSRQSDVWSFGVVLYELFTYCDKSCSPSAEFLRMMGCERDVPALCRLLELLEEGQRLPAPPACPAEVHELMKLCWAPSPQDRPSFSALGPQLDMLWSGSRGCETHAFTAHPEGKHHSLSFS

Kasumi 1 = test: cells; details: Homo sapiens, Kasumi 1, 72 h
Description: Cytotoxicity against human Kasumi-1 cells expressing c-KIT assessed as cell viability after 72 hrs by resazurin dye based fluorescence assay

Mus musculus [4] = species: Mus musculus; test: Toxicity in BALB/c mouse assessed as signs of anemia after 100 days; assay type: organism-based; details: in vivo, 2400 h
Mus musculus [5] = test: Plasma concentration at steady state in BALB/c mouse xenografted with BA/F3 cells expressing FLT3-ITD mutant at 1 mg/kg, po qd; assay type: ADME, organism-based, BaF3; set-up: dose 1 mg/kg, route oral; details: in vivo
THP-1 = test: cells; details: Homo sapiens, THP-1, 72 h
Description: Cytotoxicity against human THP1 cells assessed as cell viability after 72 hrs by resazurin dye based fluorescence assay

[6] = biological target: Hepatocyte growth factor receptor (Homo sapiens, UniProt P08581); test: Inhibition of cMET
Sequence of Hepatocyte growth factor receptor (P08581 whole entry): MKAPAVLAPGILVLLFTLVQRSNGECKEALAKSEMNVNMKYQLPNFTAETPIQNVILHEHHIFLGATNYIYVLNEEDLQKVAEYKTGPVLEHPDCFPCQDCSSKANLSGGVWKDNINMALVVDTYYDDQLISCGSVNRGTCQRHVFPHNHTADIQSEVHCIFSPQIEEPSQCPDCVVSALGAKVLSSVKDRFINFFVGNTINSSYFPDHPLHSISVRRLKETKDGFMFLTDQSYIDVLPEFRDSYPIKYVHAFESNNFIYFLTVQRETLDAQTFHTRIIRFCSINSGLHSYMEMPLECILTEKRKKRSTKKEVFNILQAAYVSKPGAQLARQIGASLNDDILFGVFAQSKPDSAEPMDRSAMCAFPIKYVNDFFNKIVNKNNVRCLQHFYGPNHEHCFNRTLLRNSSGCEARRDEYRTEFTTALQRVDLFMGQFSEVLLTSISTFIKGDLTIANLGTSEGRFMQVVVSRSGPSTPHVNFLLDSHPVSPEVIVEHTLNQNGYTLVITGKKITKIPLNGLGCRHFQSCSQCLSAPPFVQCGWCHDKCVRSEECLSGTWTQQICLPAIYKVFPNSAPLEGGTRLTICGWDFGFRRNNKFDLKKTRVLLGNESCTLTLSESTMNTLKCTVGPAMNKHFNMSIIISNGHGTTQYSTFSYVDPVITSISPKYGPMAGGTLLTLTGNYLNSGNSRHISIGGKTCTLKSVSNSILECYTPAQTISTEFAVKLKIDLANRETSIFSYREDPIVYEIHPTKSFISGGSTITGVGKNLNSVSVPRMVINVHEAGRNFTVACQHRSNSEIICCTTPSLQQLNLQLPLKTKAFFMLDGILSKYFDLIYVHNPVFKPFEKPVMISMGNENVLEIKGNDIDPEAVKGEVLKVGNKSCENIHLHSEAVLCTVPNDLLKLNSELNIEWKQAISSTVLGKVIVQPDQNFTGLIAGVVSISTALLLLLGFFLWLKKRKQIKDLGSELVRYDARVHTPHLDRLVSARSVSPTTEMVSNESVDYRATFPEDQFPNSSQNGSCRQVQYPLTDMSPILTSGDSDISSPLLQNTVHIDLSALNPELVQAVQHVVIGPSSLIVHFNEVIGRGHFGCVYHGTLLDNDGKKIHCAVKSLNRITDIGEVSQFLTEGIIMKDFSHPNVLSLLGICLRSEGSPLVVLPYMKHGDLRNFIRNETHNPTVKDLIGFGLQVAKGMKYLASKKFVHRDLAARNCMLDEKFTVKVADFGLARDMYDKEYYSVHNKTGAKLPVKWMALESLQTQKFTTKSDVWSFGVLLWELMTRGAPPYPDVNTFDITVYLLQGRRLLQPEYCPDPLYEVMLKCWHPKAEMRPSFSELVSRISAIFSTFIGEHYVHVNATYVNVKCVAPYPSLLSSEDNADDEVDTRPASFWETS

[7] = biological target: Proto-oncogene tyrosine-protein kinase Src (Homo sapiens, UniProt P12931); test: Inhibition of Src
Sequence of Proto-oncogene tyrosine-protein kinase Src (P12931 2-536 limits assumed): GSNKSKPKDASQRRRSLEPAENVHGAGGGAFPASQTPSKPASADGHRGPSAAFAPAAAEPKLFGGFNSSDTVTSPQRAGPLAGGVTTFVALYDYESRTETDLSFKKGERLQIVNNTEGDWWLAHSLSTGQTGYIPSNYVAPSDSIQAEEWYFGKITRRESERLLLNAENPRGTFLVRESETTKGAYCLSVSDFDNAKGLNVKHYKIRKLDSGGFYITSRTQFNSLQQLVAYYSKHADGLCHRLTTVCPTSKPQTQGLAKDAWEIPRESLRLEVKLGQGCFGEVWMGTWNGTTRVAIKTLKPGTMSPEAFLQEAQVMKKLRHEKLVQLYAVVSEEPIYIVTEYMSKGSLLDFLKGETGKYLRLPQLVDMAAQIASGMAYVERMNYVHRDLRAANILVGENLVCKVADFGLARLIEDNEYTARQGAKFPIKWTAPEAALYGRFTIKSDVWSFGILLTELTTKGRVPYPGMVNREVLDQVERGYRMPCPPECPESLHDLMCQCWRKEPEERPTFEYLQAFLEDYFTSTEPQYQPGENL

MV4-11 [8] = test: Induction of apoptosis in human MV4-11 cells at 100 nM assessed as late apoptotic cells after 24 hrs by annexin V and propidium iodide staining method (reference value: 5.1 %); assay type: functional
TF-1 [9] = test: cells; details: Homo sapiens, TF-1, 72 h
Description: Cytotoxicity against human TF1 cells expressing PDGFR-beta assessed as cell viability after 72 hrs by resazurin dye based fluorescence assay

cells [10] = details: Homo sapiens, Leukemia cell, 72 h; remark: listed apart in the source
Description: Cytotoxicity against human primary leukemia cells isolated from acute myeloid leukemia patient expressing FLT3-ITD mutation assessed as cell viability after 72 hrs by luciferase assay

[11] = test system: Receptor-type tyrosine-protein kinase FLT3 (Homo sapiens), P36888 [UNDEFINED MUTATION]; test: (§1) Inhibition of FLT3 ITD mutant autophosphorylation in human MV4-11 cells after 1 hr by immunoblot analysis; assay type: cell-based
[12] = biological target: Receptor-type tyrosine-protein kinase FLT3 (Homo sapiens, UniProt P36888, ITD); test: as §1; assay type: cell-based
[13] = biological target: T2, Mast/stem cell growth factor receptor Kit (Homo sapiens, UniProt P10721); test: Inhibition of c-KIT-mediated ERK 1/2 phosphorylation in human TF1 cells at 4 to 12 nM after 1 hr by immunoblot analysis; assay type: cell-based, TF-1
T2 sequence (P10721 whole entry): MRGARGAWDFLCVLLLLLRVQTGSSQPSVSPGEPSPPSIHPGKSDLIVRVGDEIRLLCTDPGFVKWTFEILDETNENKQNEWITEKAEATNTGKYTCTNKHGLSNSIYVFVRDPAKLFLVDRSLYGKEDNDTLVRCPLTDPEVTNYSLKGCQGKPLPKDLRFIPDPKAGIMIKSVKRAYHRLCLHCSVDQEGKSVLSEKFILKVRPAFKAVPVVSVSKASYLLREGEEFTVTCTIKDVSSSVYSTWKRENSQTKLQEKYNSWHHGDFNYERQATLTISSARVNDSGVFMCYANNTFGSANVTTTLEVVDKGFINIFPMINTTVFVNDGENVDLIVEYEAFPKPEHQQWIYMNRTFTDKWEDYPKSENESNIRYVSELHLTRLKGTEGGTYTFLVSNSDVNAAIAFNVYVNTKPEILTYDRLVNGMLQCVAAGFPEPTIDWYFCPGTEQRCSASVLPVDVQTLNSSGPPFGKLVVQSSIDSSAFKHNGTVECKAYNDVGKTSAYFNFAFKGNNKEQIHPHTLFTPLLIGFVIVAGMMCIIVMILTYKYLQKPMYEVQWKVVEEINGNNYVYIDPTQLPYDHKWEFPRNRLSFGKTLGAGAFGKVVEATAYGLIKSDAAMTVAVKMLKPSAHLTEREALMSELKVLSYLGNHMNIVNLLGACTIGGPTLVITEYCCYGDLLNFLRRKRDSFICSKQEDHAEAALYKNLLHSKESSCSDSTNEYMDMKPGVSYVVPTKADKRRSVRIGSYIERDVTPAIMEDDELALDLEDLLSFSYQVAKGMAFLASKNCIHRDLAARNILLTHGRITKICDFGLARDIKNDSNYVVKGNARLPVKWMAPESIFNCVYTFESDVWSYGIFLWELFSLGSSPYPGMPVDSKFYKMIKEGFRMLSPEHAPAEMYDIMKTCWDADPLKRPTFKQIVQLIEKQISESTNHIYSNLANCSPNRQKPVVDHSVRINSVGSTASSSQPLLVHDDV

[14] = biological target: T2, Mast/stem cell growth factor receptor Kit; test: Inhibition of human recombinant c-Kit by radiometric assay
Leukemia cell = test: Cytotoxicity against human primary leukemia cells isolated from acute myeloid leukemia patient expressing wild type FLT3 assessed as cell viability at 0.0005 to 10 uM after 72 hrs by luciferase assay; assay type: functional, cell-based
[15] = biological target: Vascular endothelial growth factor receptor 2 (Homo sapiens, UniProt P35968); test: Inhibition of KDR
Sequence of Vascular endothelial growth factor receptor 2 (P35968 whole entry): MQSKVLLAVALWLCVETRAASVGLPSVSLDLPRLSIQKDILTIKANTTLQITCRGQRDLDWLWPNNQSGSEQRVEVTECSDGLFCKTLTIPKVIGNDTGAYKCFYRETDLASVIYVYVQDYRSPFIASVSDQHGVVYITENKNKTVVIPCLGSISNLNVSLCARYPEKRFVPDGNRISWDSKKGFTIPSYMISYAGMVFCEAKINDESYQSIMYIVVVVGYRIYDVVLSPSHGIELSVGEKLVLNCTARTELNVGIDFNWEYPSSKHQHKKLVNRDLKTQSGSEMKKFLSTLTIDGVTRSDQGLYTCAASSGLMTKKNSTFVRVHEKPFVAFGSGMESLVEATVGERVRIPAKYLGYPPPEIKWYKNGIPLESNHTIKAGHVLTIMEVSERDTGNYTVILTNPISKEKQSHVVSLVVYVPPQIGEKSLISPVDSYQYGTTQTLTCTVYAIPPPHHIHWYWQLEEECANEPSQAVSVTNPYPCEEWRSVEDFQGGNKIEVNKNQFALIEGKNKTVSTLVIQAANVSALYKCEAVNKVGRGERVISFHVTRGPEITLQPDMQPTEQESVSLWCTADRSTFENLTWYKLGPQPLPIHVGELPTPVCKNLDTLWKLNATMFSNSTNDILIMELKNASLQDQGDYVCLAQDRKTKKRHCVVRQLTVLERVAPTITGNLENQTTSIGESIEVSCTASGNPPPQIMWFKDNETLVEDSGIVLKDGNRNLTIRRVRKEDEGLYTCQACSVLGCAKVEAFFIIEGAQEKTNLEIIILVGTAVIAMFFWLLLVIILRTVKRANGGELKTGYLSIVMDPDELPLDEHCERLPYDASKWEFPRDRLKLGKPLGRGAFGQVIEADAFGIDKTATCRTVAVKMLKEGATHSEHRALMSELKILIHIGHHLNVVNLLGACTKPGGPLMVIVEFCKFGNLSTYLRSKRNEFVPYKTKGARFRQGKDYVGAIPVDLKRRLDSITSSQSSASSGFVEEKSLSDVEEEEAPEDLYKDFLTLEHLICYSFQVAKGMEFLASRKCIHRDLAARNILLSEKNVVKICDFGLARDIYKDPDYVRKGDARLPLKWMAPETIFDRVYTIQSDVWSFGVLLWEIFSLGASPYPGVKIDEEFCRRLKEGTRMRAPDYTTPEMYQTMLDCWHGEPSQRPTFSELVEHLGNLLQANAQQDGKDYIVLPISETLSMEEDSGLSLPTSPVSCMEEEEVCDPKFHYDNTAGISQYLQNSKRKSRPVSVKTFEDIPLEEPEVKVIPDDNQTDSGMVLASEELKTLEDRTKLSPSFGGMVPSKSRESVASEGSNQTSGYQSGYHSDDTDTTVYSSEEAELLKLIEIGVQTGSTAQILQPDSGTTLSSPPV

[16] = biological target: T2, Mast/stem cell growth factor receptor Kit; test: Inhibition of SCF-induced phosphorylation of c-KIT in human TF1 cells after 1 hr by immunoblot analysis; assay type: cell-based, TF-1
Mus musculus [17] = test: Plasma concentration at steady state in BALB/c mouse xenografted with BA/F3 cells expressing FLT3-ITD mutant at 5 mg/kg, po qd; assay type: ADME, organism-based, BaF3; set-up: dose 5 mg/kg, route oral; details: in vivo
MV4-11 [18] = test: Induction of apoptosis in human MV4-11 cells at 100 nM assessed as apoptotic cells after 48 hrs by annexin V and propidium iodide staining method (reference value: 2.1 %); assay type: functional
[19] = Oral bioavailability in BALB/c mouse; assay type: ADME, organism-based; details: in vivo
Mus musculus [20] = species: Mus musculus; test: Toxicity in BALB/c mouse assessed as change in body weight after 100 days; assay type: organism-based; details: in vivo, 2400 h
MV4-11 [21] = test: Induction of apoptosis in human MV4-11 cells at 100 nM assessed as apoptotic cells after 24 hrs by annexin V and propidium iodide staining method (reference value: […]); assay type: functional
TF-1 [22] = test: cells; details: Homo sapiens, TF-1, 72 h; remark: listed apart in the source
Description: Cytotoxicity against human TF1 cells assessed as cell viability after 72 hrs by resazurin dye based fluorescence assay

MV4-11 [23] = test: Induction of apoptosis in human MV4-11 cells at 100 nM assessed as prenecrotic cells after 48 hrs by annexin V and propidium iodide staining method (reference value: 91.8 %); assay type: functional

`Nc1nc(Nc2ccc([C@H]3CC[C@H](N4CCOCC4)CC3)cc2)nn1-c1ccccn1` gave an MSD (BaF3) of 25 days, an Activity (MV4-11 [1]) of 54.5% and an IC50 (cells [2]) of 20 nM. For the same molecule, the Ki [3] was 280 nM, the IC50 (Kasumi 1) was 30 nM and the Activity (Mus musculus [4]) was “Non-toxic”. For the same molecule, the Cpss (Mus musculus [5]) was 91 ng/mL, the IC50 (THP-1) was greater than 4000 nM and the Ki [6] was 130 nM. It also gave a Ki [7] of 770 nM, an Activity (MV4-11 [8]) of 32.5% and an IC50 (TF-1 [9]) of 330 nM. For the same molecule, the IC50 (cells [10]) was 12 nM, the inhibition [11] was “Dose-dependent effect” and the IC50 [12] was 0.4 nM. The IC50 [13] was 4 nM, the Ki [14] was less than 1 nM and the Activity (Leukemia cell) was greater than 80%. For the same molecule, the Ki [15] was 85 nM, the IC50 [16] was 4 nM and the inhibition ([16]; TF-1) was “Dose-dependent effect”. The Cpss (Mus musculus [17]) was 641 ng/mL, the Activity (MV4-11 [18]) was 26.3% and the bioavailability [19] was 100%. The Activity (Mus musculus [20]) was “Non-toxic”, the Activity (MV4-11 [21]) was 8.4% and the IC50 (TF-1 [22]) was greater than 4000 nM. It also gave an Activity (MV4-11 [23]) of 28.5%.
